Patent US4593090A, “Novel nitrosourea compounds, method for preparing same, and pharmaceutical composition containing same” (Gogo Kimura, priority 1981, dated 1986)

Columns and labels:
[1] = Acute toxicity (LD50, Behrens-Karber method); assay type: in vivo, ICR mice; settings: ip, mortality during 30 days; for LD50 at 720 h: mouse, in vivo
Procedure: Test compounds, dissolved or suspended in 0.5% aqueous CMC, were each intraperitoneally administered to ICR mice in a dose of 0.1 ml per 10 g body weight. LD50 (mg/kg) value of each test compound was calculated from the mortality of mice during 30 days by the Behrens-Karber method.

[2] = tested on: Leukemia L1210; assay: Activity against Leukemia L1210, intraperitoneal, increase in life span of mice; assay type: in vivo, female mice (BDF1 family); settings: for ED (maximum ILS) / ED30: Mus musculus, L1210, ip; for ED (maximum ILS): read-out: O.D. (optimum dosage); for ED30: read-out: ILS30; for Survivors after 60 days / Max. ILS % / Therapeutic ratio TR: ip; for Survivors after 60 days: 6-membered group; for Max. ILS %: 60-day observation, versus control; for Therapeutic ratio TR: O.D./ILS30
In short: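 Beginning 24 hours after intraperitoneal implantation of 1×10^5 leukemia cells, six-mouse groups of female BDF1 mice receive the test compound once daily for five consecutive days by the ip or oral route. Survival is recorded up to 60 days and compared with untreated controls.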

[3] = ip once a day for 5 successive days, daily dosage giving maximum increase of life span
[4] = ip once a day for 5 successive days, daily dosage increasing average survival days by 30%

SMILES	LD50 at 720 h [1] [mg/kg]	ED (maximum ILS) [2, 3] [mg/kg]	ED30 [2, 4] [mg/kg]	Survivors after 60 days [2]	Max. ILS % [2] [%]	Therapeutic ratio TR [2]	LD50 ([1]; 43200 min) [mg/kg]	O.D. (optimum dosage) [2, 3] [mg/kg]	ILS30 [2, 4] [mg/kg]
COCCCOC1OC(CO)C(O)C(N(CC(C)C)C(=O)N(CCCl)N=O)C1O [Compound 77, 3-isobutyl-3-(3-methoxy-n-propyl α-D-glucopyranose-3-yl)-1-(2-chloroethyl)-1-nitrosourea]	685	200	5.08	4/6	> 425	39.4			
CO[C@H]1O[C@H](CO)[C@@H](O)[C@H](NC(=O)N(CCCl)N=O)[C@H]1O [KCNUM, 3-(methyl α-D-glucopyranose-3-yl)-1-(2-chloroethyl)-1-nitrosourea, reference compound]	130	25.4	1.38	4/6	> 425	18.4			
CC(C)CN(C[C@H]1O[C@H](OCc2ccccc2)[C@H](O)[C@@H](O)[C@@H]1O)C(=O)N(CCCl)N=O [Compound 54, 3-isobutyl-3-(benzyl α-D-glucopyranose-6-yl)-1-(2-chloroethyl)-1-nitrosourea]	450	150	3.93	4/6	> 450	38.2			
CC(C)CN(C[C@H]1O[C@H](OCc2ccccc2)[C@@H](O)[C@H](O)[C@@H]1O)C(=O)N(CCCl)N=O [Compound 139, 3-isobutyl-3-(benzyl α-D-altropyranose-6-yl)-1-(2-chloroethyl)-1-nitrosourea]	420	130	4.58	3/6	> 340	28.4			
O=NN(CCCl)C(=O)N(CCCCO)C[C@H]1O[C@H](OC2CCCCC2)[C@H](O)[C@@H](O)[C@@H]1O [Compound 43]	520	160	4.68	4/6	> 435	34.2			
CC(C)CO[C@H]1O[C@H](CO)[C@H](O)[C@H](N(CC(C)C)C(=O)N(CCCl)N=O)[C@H]1O [Compound 125, 3-isobutyl-3-(isobutyl α-D-galactopyranose-3-yl)-1-(2-chloroethyl)-1-nitrosourea]	780	250	7.67	3/6	> 350	32.6			
O=NN(CCCl)C(=O)N(Cc1ccccc1)C[C@H]1O[C@H](OC2CCCCC2)[C@H](O)[C@@H](O)[C@@H]1O [Compound 46, 3-benzyl-3-(cyclohexyl α-D-glucopyranose-6-yl)-1-(2-chloroethyl)-1-nitrosourea]	510	150	3.9	4/6	> 425	38.5			
CCCCO[C@H]1O[C@H](CO)[C@H](O)[C@H](O)[C@H]1N(C)C(=O)N(CCCl)N=O [Compound 118, 3-methyl-3-(n-butyl α-D-galactopyranose-2-yl)-1-(2-chloroethyl)-1-nitrosourea]	400	130	4.45	3/6	> 350	29.2			
COc1cccc(CN(C[C@H]2O[C@H](OC3CCCCC3)[C@H](O)[C@@H](O)[C@@H]2O)C(=O)N(CCCl)N=O)c1OC [Compound 49, 3-(2,3-dimethoxybenzyl)-3-(cyclohexyl α-D-glucopyranose)-6-yl)-1-(2-chloroethyl-1-nitrosourea]	560	170	4.74	4/6	> 420	35.9			
C=C(C)CN(C(=O)N(CCCl)N=O)[C@H]1[C@@H](OC(C)CC)O[C@H](CO)[C@@H](O)[C@@H]1O (stereo partly drawn) [Compound 60, 3-(2-methyl-2-propenyl)-3-(sec-butyl α -D-glucopyranose-2-yl)-1-(2-chloroethyl)-1-nitrosourea]	580	200	7.15	3/6	> 345	28.0			
CCN(C(=O)N(CCCl)N=O)[C@H]1[C@@H](OCC(C)C)O[C@H](CO)[C@H](O)[C@@H]1O [Compound 121, 3-ethyl-3-(isobutyl α-D-galactopyranose-2-yl)-1-(2-chloroethyl)-1-nitrosourea]	480	160	5.99	3/6	> 350	26.7			
CCCCO[C@H]1O[C@H](CN(CCCC)C(=O)N(CCCl)N=O)[C@@H](O)[C@H](O)[C@H]1O [Compound 6, 3-n-butyl-3-(n-butyl α-D-glucopyranose-6-yl)-1-(2-chloroethyl)-1-nitrosourea]	390	120	3	6/6	> 700	40.0			
COC(C)CO[C@H]1O[C@H](CN(CC2CC2)C(=O)N(CCCl)N=O)[C@H](O)[C@H](O)[C@H]1O (stereo partly drawn) [Compound 116, 3-cyclopropylmethyl-3-(2-methoxy-n-propyl α-D-galactopyranose-6-yl)-1-(2-chloroethyl)-1-nitrosourea]	450	150	2.51	6/6	> 700	59.8			
CO[C@H]1O[C@H](CN(CCO)C(=O)N(CCCl)N=O)[C@@H](O)[C@H](O)[C@H]1O [Compound 6MCαGHE, 3-(2-hydroxyethyl)-3-(methyl α-D-glucopyranose-6-yl)-1-(2-chloroethyl)-1-nitrosourea, reference compound]	90	30	1.4	4/6	> 440	21.4			
COC(C)CN(C[C@H]1O[C@H](OC2CCCCC2)[C@H](O)[C@@H](O)[C@H]1O)C(=O)N(CCCl)N=O (stereo partly drawn) [Compound 103, 3-(2-methoxy-n-propyl)-3-(cyclohexyl α-D-galactopyranose-6-yl)-1-(2-chloroethyl)-1-nitrosourea]	685	200	3.63	5/6	> 625	55.1			
CC(C)CO[C@@H]1OC[C@H](N(C(=O)N(CCCl)N=O)C2CCCCC2)[C@H](O)[C@H]1O [Compound 152]	550	170	4.31	4/6	> 425	43.1			
CC(C)CN(C(=O)N(CCCl)N=O)[C@H]1[C@H](O)[C@H](OC2CCCCC2)O[C@@H]1CO [Compound 163, 3-isobutyl-3-(cyclohexyl β-D-arabinofuranose-3-yl)-1-(2-chloroethyl)-1-nitrosourea]	550	160	4.91	3/6	> 365	32.6			
COc1ccc(CO[C@H]2O[C@H](CN(C(=O)N(CCCl)N=O)C(C)(C)C)[C@@H](O)[C@H](O)[C@H]2O)cc1 [Compound 182, 3-tert-butyl-3-(p-methoxybenzyl α-D-glucopyranose-6-yl)-1-(2-chloroethyl)-1-nitrosourea]	420	140	3.49	5/6	> 620	40.1			
CC(C)CN(C(=O)N(CCCl)N=O)[C@H]1[C@@H](OC2CCCCC2)O[C@H](CO)[C@@H]1O [Compound 166, 3-isobutyl-3-(cyclohexyl α-D-xylofuranose-2-yl)-1-(2-chloroethyl)-1-nitrosourea]	450	150	4.75	3/6	> 345	31.6			
CO[C@H]1O[C@H](CNC(=O)N(CCCl)N=O)[C@@H](O)[C@H](O)[C@H]1O [Compound 6MCαGM, 3-(methyl α-D-glucopyranose-6-yl)-1-(2-chloroethyl)-1-nitrosourea, reference compound]				4/6	> 450	20.1	88	29.1	1.45
CCCCN(C[C@H]1O[C@H](OC2CCCCC2)[C@H](O)[C@@H](O)[C@H]1O)C(=O)N(CCCl)N=O [Compound 99, 3-n-butyl-3-(cyclohexyl α-D-galactopyranose-6-yl)-1-(2-chloroethyl)-1-nitrosourea]	630	200	6.22	3/6	> 330	32.2			
CCCCOC1OC(CO)C(O)C(N(C(=O)N(CCCl)N=O)C(C)CC)C1O [Compound 81, 3-sec-butyl-3-(n-butyl β-D-glucopyranose-3-yl)-1-(2-chloroethyl)-1-nitrosourea]	580	200	5.8	3/6	> 360	34.5			
